Holding throughout (assay type): cell-based
The test system of test [1] is Human breast cancer cell lines T-47D. Put plainly: Caspase cascade activation (Ac-DEVD-R110 fluorogenic substrate) in T-47D cells. The settings on record: T47D cells, 48 h incubation, read-out: caspase potency EC50 T47D. As to the method: (§1) Human breast cancer cell lines T-47D, human hepatocellular carcinoma cell line SNU398, human colon carcinoma cell line HCT116, human cancer cell line H11299, human Burkitt's lymphoma cell line Namalwa, human lymphoma cell line Raji, and human B cell lymphoblastoid cell line Ramos were grown according to media component mixtures designated by American Type Culture Collection+10% FCS (Invitrogen Corporation), in a 5% CO2-95% humidity incubator at 37° C. T-47D and H1299 cells were maintained at a cell density between 50 and 80% confluency at a cell density of 0.1 to 0.6×10^6 cells/mL. Cells were harvested at 600×g and resuspended at 0.65×10^6 cells/mL into appropriate media+10% FCS. An aliquot of 22.5 μL of cells was added to a well of a 384-well microtiter plate containing 2.5 μL of a 10% DMSO in RPMI-1640 media solution containing 0.16 to 100 μM of 6-(3,4-dimethoxyphenyl)-3-(2-methoxyphenyl)-[1,2,4]triazolo[3,4-b][1,3,4]thiadiazole or other test compound (0.016 to 10 μM final). An aliquot of 22.5 μL of cells was added to a well of a 384-well microtiter plate containing 2.5 μL of a 10% DMSO in RPMI-1640 media solution without test compound as the control sample. The samples were mixed by agitation and then incubated at 37° C. for 48 h in a 5% CO2-95% humidity incubator. After incubation, the samples were removed from the incubator and 25 μL of a solution containing 14 μM of N-(Ac-DEVD)-N′-ethoxycarbonyl-R110 (SEQ ID No.:1) fluorogenic substrate (Cytovia, Inc.; WO99/18856), 20% sucrose (Sigma), 20 mM DTT (Sigma), 200 mM NaCl (Sigma), 40 mM Na PIPES buffer pH 7.2 (Sigma), and 500 μg/mL lysolecithin (Calbiochem) was added. The samples were mixed by agitation and incubated at room temperature. Using a fluorescent plate reader (Model SPECTRAfluor Plus, Tecan), an initial reading (T=0) was made approximately 1-2 min after addition of the substrate solution, employing excitation at 485 nm and emission at 530 nm, to determine the background fluorescence of the control sample. After the 3 h incubation, the samples were read for fluorescence as above (T=3 h).
(§2) The Relative Fluorescence Unit values (RFU) were used to calculate the sample readings as follows: RFU(T=3h)−Control RFU(T=0)=Net RFU(T=3h)
(§3) The activity of caspase cascade activation was determined by the ratio of the net RFU value for 6-(3,4-dimethoxyphenyl)-3-(2-methoxyphenyl)-[1,2,4]triazolo[3,4-b][1,3,4]thiadiazole (Example I) or other test compound to that of control samples. The EC50 (nM) was determined by a sigmoidal dose-response calculation (Prism 3.0, GraphPad Software Inc.).

For test [2], the system named is human colon carcinoma cell line HCT116. In words: Caspase cascade activation in HCT116 cells. The conditions noted are these: HCT-116, 48 h incubation, read-out: caspase potency EC50 HCT116. As to the method:
as §1, §2, §3

The subject of test [3] is human lymphoma cell line Raji. In words: Caspase cascade activation in Raji cells. The conditions noted are these: RAJ1 cells, 48 h incubation, read-out: caspase potency EC50 RAJ1. As to the method:
as §1, §2, §3

Test [4] concerns human B cell lymphoblastoid cell line Ramos. In words: Caspase cascade activation in Ramos cells. The conditions noted are these: 48 h incubation, read-out: caspase potency EC50 RAMOS. On the procedure:
as §1, §2, §3

For test [5], the system named is human hepatocellular carcinoma cell line SNU398. Put plainly: Caspase cascade activation in SNU398 cells. The conditions noted are these: SNU-398, 48 h incubation, read-out: caspase potency EC50 SNU398. As to the method: as §1, §2, §3
Test [6] deals with human Burkitt's lymphoma cell line Namalwa. Put plainly: Caspase cascade activation in Namalwa cells. The conditions noted are these: Burkitts lymphoma cell, 48 h incubation, read-out: caspase potency EC50 Namalwa. As to the method: as §1, §2, §3
Test [7] relates to human colon carcinoma cell line HCT116. Put plainly: Inhibition of cell proliferation (GI50) in HCT116 cells. The settings on record: HCT 116 cells, 48 h incubation. On the procedure: (§4) Human breast cancer cell lines T-47D, MX1 and MDAMB435, human colon carcinoma cell line HCT116, human leukemia cell line K562, human lymphoma cell line Raji, human B cell lymphoblastoid cell line Ramos, and human Burkitt's lymphoma cell line Namalwa were grown and harvested as in Example 14. An aliquot of […] of cells (4.4×10^4 cells/mL) was added to a well of a 96-well microtiter plate containing 5 μL of a 10% DMSO in RPMI-1640 media solution containing 10 nM to 100 μM of 6-(3,4-dimethoxyphenyl)-3-(2-methoxyphenyl)-[1,2,4]triazolo[3,4-b][1,3,4]thiadiazole (1 nM to 10 μM final). An aliquot of 45 μL of cells was added to a well of a 96-well microtiter plate containing 5 μL of a 10% DMSO in RPMI-1640 media solution without compound as the control sample for maximal cell proliferation (LMax). The samples were mixed by agitation and then incubated at 37° C. for 48 h in a 5% CO2-95% humidity incubator. After incubation, the samples were removed from the incubator and 25 μL of CellTiter-Glo™ reagent (Promega) was added. The samples were mixed by agitation and incubated at room temperature for 10-15 min. Plates were then read using a luminescent plate reader (Model SPECTRAfluor Plus, Tecan) to give Ltest values.
(§5) The samples were mixed by agitation and then incubated at 37° C. for 0.5 h in a 5% CO2-95% humidity incubator. After incubation, the samples were removed from the incubator and 25 μL of CellTiter-Glo™ reagent (Promega) was added. The samples were mixed by agitation and incubated at […] 10-15 min at room temperature in a 5% CO2-95% humidity incubator. Fluorescence was read as above, (LStart) defining luminescence for initial cell number used as baseline in GI50 determinations.
(§6) GI50 (dose for 50% inhibition of cell proliferation) is the concentration where [(LTest−LStart)/(LMax−LStart)]=0.5.

In test [8] the test system is human Burkitt's lymphoma cell line Namalwa. Put plainly: Inhibition of cell proliferation (GI50) in Namalwa cells. The settings on record: Burkitts lymphoma cell, 48 h incubation. On the procedure:
as §4, §5, §6

Test [9] has as its system human lymphoma cell line Raji. Put plainly: Inhibition of cell proliferation (GI50) in Raji cells. The settings on record: 48 h incubation. As to the method:
as §4, §5, §6

Test [10] has as its system human B cell lymphoblastoid cell line Ramos. In words: Inhibition of cell proliferation (GI50) in Ramos cells. The settings on record: 48 h incubation. As to the method:
as §4, §5, §6

Test [11] relates to human leukemia cell line K562. Put plainly: Inhibition of cell proliferation (GI50) in K562 cells. The settings on record: 48 h incubation. As to the method:
as §4, §5, §6

On to `CCN(CC)c1ccc(-c2nn3c(-c4ccccc4Cl)nnc3s2)cc1` [Entry G1, 3-(2-Chlorophenyl)-6-(4-diethylaminophenyl)-[1,2,4]triazolo[3,4-b][1,3,4]thiadiazole], for which the EC50 in test [1] worked out at 584 nM; in test [2], 1380 nM; in test [3], 627 nM; in test [4], 575 nM; in test [5], 455 nM; in [6] it was 593 nM. Also, the GI50 in test [7] worked out at 492 nM; in [8] it was 149 nM; in test [9], 405 nM; in test [10], 41 nM; in test [11], 155 nM.
Turning to `Cc1ccccc1-c1nnc2sc(-c3ccc(N(C)C)cc3)nn12` [Entry I1, 6-(4-Dimethylaminophenyl)-3-o-tolyl-[1,2,4]triazolo[3,4-b][1,3,4]thiadiazole], the EC50 was 864 nM in test [1]; 1330 nM in test [2]; 634 nM in test [3]; 558 nM in test [4]; 596 nM in test [5]; 510 nM in test [6]. The GI50 in [7] came out at 1190 nM; in test [8], 142 nM; in [9] it was 253 nM; in [10] it was 93 nM; in [11] it was 350 nM.
Consider `COc1ccc(-c2nn3c(-c4cc(OC)c(OC)c(OC)c4)nnc3s2)cc1` [Entry S, 6-(4-Methoxyphenyl)-3-(3,4,5-trimethoxyphenyl)-[1,2,4]triazolo[3,4-b][1,3,4]thiadiazole], for which the EC50 in test [1] is 2420 nM; in [2], more than 10000 nM; in test [3], more than 10000 nM; in [4] it was 2440 nM; in test [5], more than 10000 nM; in test [6], more than 10000 nM. Besides, the GI50 is more than 10000 nM in test [7]; more than 10000 nM in test [8]; more than 10000 nM in test [9]; 4990 nM in test [10]; 1460 nM in [11].
Consider `COc1cc(-c2nnc3sc(-c4ccc(C)c(C)c4)nn23)cc(OC)c1OC` [Entry T, 6-(3,4-Dimethylphenyl)-3-(3,4,5-trimethoxyphenyl)-[1,2,4]triazolo[3,4-b][1,3,4]thiadiazole], for which the EC50 was found to be 517 nM in test [1]; 336 nM in test [2]; 490 nM in test [3]; 314 nM in [4]; 297 nM in test [5]; 611 nM in test [6]. The GI50 in test [7] was 906 nM; in test [8] it was 500 nM; in test [9], 559 nM; in [10] it was 137 nM; in [11], 131 nM.
Take `Cc1cccc(-c2nn3c(-c4ccc(Cl)cc4Cl)nnc3s2)c1` [K, 3-(2,4-Dichlorophenyl)-6-m-tolyl-[1,2,4]triazolo[3,4-b][1,3,4]thiadiazole]: the half-maximal effective concentration (EC50) in [1] came out at 607 nM; in test [2], 661 nM; in test [3], 505 nM; in test [4] it was 387 nM; in test [5], 482 nM; in test [6], 469 nM. For the same compound, the GI50 came to 400 nM in [7]; 559 nM in test [8]; 500 nM in test [9]; 123 nM in test [10]; 379 nM in [11].
Regarding `Clc1ccccc1-c1nnc2sc(-c3ccc4c(c3)OCCO4)nn12` [Q, 3-(2-Chlorophenyl)-6-(3,4-ethylenedioxyphenyl)-[1,2,4]triazolo[3,4-b][1,3,4]thiadiazole], the EC50 was 2450 nM in [1]; 2670 nM in test [2]; 688 nM in [3]; 532 nM in [4]; 2120 nM in [5]; 552 nM in test [6]. Further, the GI50 in [7] was 6040 nM; in test [8], 2040 nM; in test [9], 6730 nM; in [10], 1300 nM; in test [11], 1880 nM.

Values taken from patent publication US7732468B2, “3-aryl-6-aryl-[ 1,2,4]triazolo[3,4-b][1,3,4]thiadiazoles and related compounds as activators of caspases and inducers of apoptosis and the use thereof” (Cytovia, Inc., priority 2006, dated 2010).
